Measurements as given in ChEMBL document CHEMBL1165868, “Synthesis and antimicrobial activity of cholic acid hydrazone analogues” (2010).
Converted amounts (≈) assume the structure as drawn. The source made the active and inactive calls. The calls are words filed in the database; no cut-off is given here.

Key:
Assay type in all cases: functional
[1] = test system: Escherichia coli; test: Antimicrobial activity against Escherichia coli after 24 hrs
[2] = test system: Pseudomonas aeruginosa; test: Antimicrobial activity against Pseudomonas aeruginosa after 24 hrs
[3] = test system: Klebsiella aerogenes; test: Antimicrobial activity against Enterobacter aerogenes after 24 hrs
[4] = test system: Staphylococcus aureus; test: Antimicrobial activity against Staphylococcus aureus after 24 hrs
[5] = test system: Enterococcus faecalis; test: Antimicrobial activity against Enterococcus faecalis after 24 hrs
[6] = test system: Priestia megaterium; test: Antimicrobial activity against Bacillus megaterium after 24 hrs

Row | MIC [1] | MIC [2] | MIC [3] | MIC [4] | MIC [5] | MIC [6] | Structure (SMILES)
1 | 7.81 µg/mL (≈ 14.9 µM) | inactive | inactive | 31.2 µg/mL (≈ 59.6 µM) | 7.82 µg/mL (≈ 14.9 µM) | inactive | Cc1ccc(/C=N/NC(=O)CC[C@@H](C)[C@H]2CC[C@H]3[C@@H]4[C@H](O)C[C@@H]5C[C@H](O)CC[C@]5(C)[C@H]4C[C@H](O)[C@]23C)cc1
2 | 7.81 µg/mL (≈ 14.4 µM) | inactive | inactive | 62.5 µg/mL (≈ 116 µM) | 15.6 µg/mL (≈ 28.9 µM) | 31.2 µg/mL (≈ 57.8 µM) | COc1ccc(/C=N/NC(=O)CC[C@@H](C)[C@H]2CC[C@H]3[C@@H]4[C@H](O)C[C@@H]5C[C@H](O)CC[C@]5(C)[C@H]4C[C@H](O)[C@]23C)cc1
3 | 7.81 µg/mL (≈ 14.1 µM) | inactive | inactive | 31.2 µg/mL (≈ 56.2 µM) | 7.82 µg/mL (≈ 14.1 µM) | 31.2 µg/mL (≈ 56.2 µM) | C[C@H](CCC(=O)N/N=C/c1ccc([N+](=O)[O-])cc1)[C@H]1CC[C@H]2[C@@H]3[C@H](O)C[C@@H]4C[C@H](O)CC[C@]4(C)[C@H]3C[C@H](O)[C@]12C
4 | 7.81 µg/mL (≈ 14.6 µM) | inactive | inactive | 31.2 µg/mL (≈ 58.3 µM) | 15.6 µg/mL (≈ 29.2 µM) | 31.2 µg/mL (≈ 58.3 µM) | C[C@H](CCC(=O)N/N=C/c1ccc(C#N)cc1)[C@H]1CC[C@H]2[C@@H]3[C@H](O)C[C@@H]4C[C@H](O)CC[C@]4(C)[C@H]3C[C@H](O)[C@]12C
5 | inactive | inactive | inactive | 31.2 µg/mL (≈ 59.3 µM) | 7.82 µg/mL (≈ 14.8 µM) | 31.2 µg/mL (≈ 59.3 µM) | C[C@H](CCC(=O)N/N=C/c1ccccc1O)[C@H]1CC[C@H]2[C@@H]3[C@H](O)C[C@@H]4C[C@H](O)CC[C@]4(C)[C@H]3C[C@H](O)[C@]12C
6 | 3.91 µg/mL (≈ 7.17 µM) | inactive | inactive | 62.5 µg/mL (≈ 115 µM) | 1.96 µg/mL (≈ 3.6 µM) | 31.2 µg/mL (≈ 57.3 µM) | C[C@H](CCC(=O)N/N=C/c1ccc(Cl)cc1)[C@H]1CC[C@H]2[C@@H]3[C@H](O)C[C@@H]4C[C@H](O)CC[C@]4(C)[C@H]3C[C@H](O)[C@]12C
7 | inactive | inactive | inactive | inactive | 31.2 µg/mL (≈ 53.9 µM) | inactive | COc1ccc2[nH]cc(/C=N/NC(=O)CC[C@@H](C)[C@H]3CC[C@H]4[C@@H]5[C@H](O)C[C@@H]6C[C@H](O)CC[C@]6(C)[C@H]5C[C@H](O)[C@]34C)c2c1
8 | 3.91 µg/mL (≈ 7.17 µM) | inactive | inactive | 31.2 µg/mL (≈ 57.3 µM) | 1.96 µg/mL (≈ 3.6 µM) | 31.2 µg/mL (≈ 57.3 µM) | C[C@H](CCC(=O)N/N=C/c1cccc(Cl)c1)[C@H]1CC[C@H]2[C@@H]3[C@H](O)C[C@@H]4C[C@H](O)CC[C@]4(C)[C@H]3C[C@H](O)[C@]12C
9 | inactive | inactive | inactive | 31.2 µg/mL (≈ 59.1 µM) | 62.5 µg/mL (≈ 118 µM) | 31.2 µg/mL (≈ 59.1 µM) | C[C@H](CCC(=O)N/N=C/c1ccc(F)cc1)[C@H]1CC[C@H]2[C@@H]3[C@H](O)C[C@@H]4C[C@H](O)CC[C@]4(C)[C@H]3C[C@H](O)[C@]12C
10 | 1.96 µg/mL (≈ 4.32 µM) | 19.5 µg/mL (≈ 43.1 µM) | 31.2 µg/mL (≈ 68.9 µM) | 31.2 µg/mL (≈ 68.9 µM) | 31.2 µg/mL (≈ 68.9 µM) | inactive | C=CC1=C(C(=O)O)N2C(=O)[C@@H](NC(=O)/C(=N\OCC(=O)O)c3csc(N)n3)[C@H]2SC1 [CEFIXIME]
11 | 3.91 µg/mL (≈ 6.85 µM) | inactive | inactive | inactive | 15.6 µg/mL (≈ 27.4 µM) | 31.2 µg/mL (≈ 54.8 µM) | COc1cccc(/C=N/NC(=O)CC[C@@H](C)[C@H]2CC[C@H]3[C@@H]4[C@H](O)C[C@@H]5C[C@H](O)CC[C@]5(C)[C@H]4C[C@H](O)[C@]23C)c1OC
12 | 3.91 µg/mL (≈ 7.66 µM) | inactive | inactive | 62.5 µg/mL (≈ 122 µM) | 15.6 µg/mL (≈ 30.6 µM) | 31.2 µg/mL (≈ 61.2 µM) | C[C@H](CCC(=O)N/N=C/c1ccccc1)[C@H]1CC[C@H]2[C@@H]3[C@H](O)C[C@@H]4C[C@H](O)CC[C@]4(C)[C@H]3C[C@H](O)[C@]12C
13 | inactive | inactive | inactive | 62.5 µg/mL (≈ 121 µM) | 31.2 µg/mL (≈ 60.5 µM) | 15.6 µg/mL (≈ 30.2 µM) | C[C@H](CCC(=O)N/N=C/c1cccs1)[C@H]1CC[C@H]2[C@@H]3[C@H](O)C[C@@H]4C[C@H](O)CC[C@]4(C)[C@H]3C[C@H](O)[C@]12C
14 | inactive | inactive | inactive | inactive | 15.6 µg/mL (≈ 27.4 µM) | 31.2 µg/mL (≈ 54.8 µM) | COc1ccc(OC)c(/C=N/NC(=O)CC[C@@H](C)[C@H]2CC[C@H]3[C@@H]4[C@H](O)C[C@@H]5C[C@H](O)CC[C@]5(C)[C@H]4C[C@H](O)[C@]23C)c1
15 | 7.81 µg/mL (≈ 19.1 µM) | 15.6 µg/mL (≈ 38.3 µM) | inactive | inactive | 31.2 µg/mL (≈ 76.5 µM) | inactive | C[C@H](CCC(=O)O)[C@H]1CC[C@H]2[C@@H]3[C@H](O)C[C@@H]4C[C@H](O)CC[C@]4(C)[C@H]3C[C@H](O)[C@]12C [CHOLIC ACID]
16 | inactive | inactive | inactive | inactive | 31.2 µg/mL (≈ 73.9 µM) | 31.2 µg/mL (≈ 73.9 µM) | C[C@H](CCC(=O)NN)[C@H]1CC[C@H]2[C@@H]3[C@H](O)C[C@@H]4C[C@H](O)CC[C@]4(C)[C@H]3C[C@H](O)[C@]12C [CHOLYLHYDRAZIDE]
17 | 7.81 µg/mL (≈ 13.2 µM) | inactive | inactive | inactive | 1.96 µg/mL (≈ 3.32 µM) | 31.2 µg/mL (≈ 53 µM) | C[C@H](CCC(=O)N/N=C/c1ccccc1Br)[C@H]1CC[C@H]2[C@@H]3[C@H](O)C[C@@H]4C[C@H](O)CC[C@]4(C)[C@H]3C[C@H](O)[C@]12C
18 | inactive | inactive | 7.82 µg/mL (≈ 21.3 µM) | 31.2 µg/mL (≈ 85 µM) | 31.2 µg/mL (≈ 85 µM) | 31.2 µg/mL (≈ 85 µM) | N[C@@H](C(=O)N[C@@H]1C(=O)N2C(C(=O)O)=C(Cl)CS[C@H]12)c1ccccc1 [CEFACLOR ANHYDROUS]
19 | 3.91 µg/mL (≈ 6.63 µM) | inactive | inactive | 62.5 µg/mL (≈ 106 µM) | 3.91 µg/mL (≈ 6.63 µM) | 7.82 µg/mL (≈ 13.3 µM) | C[C@H](CCC(=O)N/N=C/c1ccc(Br)cc1)[C@H]1CC[C@H]2[C@@H]3[C@H](O)C[C@@H]4C[C@H](O)CC[C@]4(C)[C@H]3C[C@H](O)[C@]12C
20 | 7.81 µg/mL (≈ 13.2 µM) | inactive | inactive | 31.2 µg/mL (≈ 53 µM) | 3.91 µg/mL (≈ 6.63 µM) | 31.2 µg/mL (≈ 53 µM) | C[C@H](CCC(=O)N/N=C/c1ccc(Cl)c([N+](=O)[O-])c1)[C@H]1CC[C@H]2[C@@H]3[C@H](O)C[C@@H]4C[C@H](O)CC[C@]4(C)[C@H]3C[C@H](O)[C@]12C
21 | inactive | inactive | inactive | inactive | inactive | 31.2 µg/mL (≈ 62.4 µM) | C[C@H](CCC(=O)N/N=C/c1ccco1)[C@H]1CC[C@H]2[C@@H]3[C@H](O)C[C@@H]4C[C@H](O)CC[C@]4(C)[C@H]3C[C@H](O)[C@]12C
22 | inactive | inactive | inactive | inactive | inactive | 31.2 µg/mL (≈ 62.5 µM) | C[C@H](CCC(=O)N/N=C/c1ccc[nH]1)[C@H]1CC[C@H]2[C@@H]3[C@H](O)C[C@@H]4C[C@H](O)CC[C@]4(C)[C@H]3C[C@H](O)[C@]12C
23 | inactive | inactive | inactive | 31.2 µg/mL (≈ 56.8 µM) | 3.91 µg/mL (≈ 7.11 µM) | 15.6 µg/mL (≈ 28.4 µM) | C[C@H](CCC(=O)N/N=C/c1cc2ccccc2[nH]1)[C@H]1CC[C@H]2[C@@H]3[C@H](O)C[C@@H]4C[C@H](O)CC[C@]4(C)[C@H]3C[C@H](O)[C@]12C
24 | 7.81 µg/mL (≈ 15.3 µM) | inactive | inactive | inactive | inactive | 31.2 µg/mL (≈ 61.1 µM) | C[C@H](CCC(=O)N/N=C/c1ccccn1)[C@H]1CC[C@H]2[C@@H]3[C@H](O)C[C@@H]4C[C@H](O)CC[C@]4(C)[C@H]3C[C@H](O)[C@]12C
